Measurements taken from patent publication US20100311691A1, “COMPOSITIONS OF S-ALKYLISOTHIOURONIUM DERIVATIVES FOR TREATING UPPER RESPIRATORY CONGESTION” (priority 2007, published 2010).

Key:
[1] = tested on: nasal congestion, rhino-sinusitis; test: Example 4: case report Patient A (rhino-sinusitis), nasal drops; format: in vivo; conditions: for repeated administrations needed: nasal drops
Procedure: Patient A was admitted with a diagnosis of rhino-sinusitis. […] Clinical examination indicated hyperemia of the nasal mucosa, rhinorrhea, nasal obstruction with narrowing of the lower and medium nasal cornets. The patient was treated with, antibacterial medication, and the sinuses were drained by the introduction of antiseptics. In addition, 2-3 nasal drops of S-ethylisothiouronium diethylphosphate 1% were administered. The patient was treated during 3 days. As a result of the treatment with S-ethylisothiouronium diethylphosphate, an amelioration of the clinical symptoms was achieved 1-2 days earlier than that achieved by the treatment with S-ethylisothiouronium bromide (designated Olysin). Also, the repeated administration of S-ethylisothiouronium diethylphosphate was reduced to 2-3 times per day, and not 4-5 times as was necessary when administering Olysin.

nasal congestion = conditions: unpublished studies; cited from earlier work
[2] = tested on: nasal congestion, rhinitis and acute sinusitis; test: Example 4: case report Patient B (rhinitis and acute sinusitis), nasal drops; format: in vivo
Procedure: Patient B was admitted with a diagnosis of rhinitis and acute sinusitis. The patient complained of headaches, dizziness, and common cold. […] The radiological examination confirmed acute sinusitis. The patient was treated by puncture of the sinuses with the introduction of antiseptics, Cefazoline 1.0 administered intramuscularly 2 times per day, Loratidin tablets 10 mg and, locally, nasal drops of S-ethylisothiouronium diethylphosphate 2% were used 3-4 times per day. The treatment with S-ethylisothiouronium diethylphosphate led to an amelioration of the clinical symptoms and hyperemia of the nasal mucosa 1-2 days earlier than that obtained by the treatment with Olysin.

[3] = tested on: upper respiratory tract and oral pharyngeal congestion; test: Summary comparison of diethylphosphate and bromide in upper respiratory tract and oral pharyngeal congestion; format: in vivo, subjects; conditions: summary statement

Row | Molecule | repeated administrations needed [1] | nasal decongestion (nasal congestion) | side effects (nasal congestion) | adverse effects ([2]; 2% nasal drops) | amelioration of clinical symptoms and hyperemia of the nasal mucosa earlier than with Olysin ([2]; 2% nasal drops 3-4 times per day, with Cefazoline, Loratidin, antiseptics) [days] | adverse effects / tachyphylaxis ([1]; 1% nasal drops) | amelioration of clinical symptoms earlier than with S-ethylisothiouronium bromide (Olysin) ([1]; 2-3 nasal drops of 1%, treated during 3 days, with antibacterial medication and sinus drainage) [days] | efficiency in alleviating congestion and symptoms, relative to S-ethylisothiouronium bromide [3] | side effects [3]
1 | Br.CCSC(=N)N [Olysin, S-ethylisothiouronium bromide] | 4-5 times per day | moderate and short-term nasal decongestions | harmful side effects | – | – | – | – | – | –
2 | S-ethylisothiouronium diethylphosphate | 2-3 times per day | – | – | No adverse effects | 1 to 2 | No adverse effects or tachyphylaxis | 1 to 2 | more efficient than S-ethylisothiouronium bromide | little or no side effects
